Patent US20040087842A1, “Fluorescent probes for saccharrides” (priority 2002, published 2004)
Like-named read-outs stand apart in the source and are kept apart here.

Columns and labels:
[1] = cited from earlier work
[2] = literature value; read-out: KD D-galactose; cited from earlier work
[3] = cited from earlier work; for decrease of emission intensity after addition of glucose: pH 7.4, literature
[4] = Fluorescence titration curves against sugar (dissociation constant), D-fructose; assay type: binding
Procedure: (§1) Stilbene-4-boronic acid (STBA), 4′-cyanostilbene-4-boronic acid (CSTBA), 4′-methoxystilbene-4-boronic acid (MSTBA) and 4′-(dimethylamino)stilbene-4-boronic acid (DSTBA) were synthesized by the Wittig reaction between the para-substituted benzaldehydes and the para-boronic acid derivative of the benzyltriphenylphosphonium bromide. This latter was synthesized by the reaction of the p-bromomethylphenylboronic acid with triphenylphosphine in toluene. […] Absorption spectrawere recorded with a Cary 50 UV-Vis spectrophotometer from Varian. Emission spectra were recorded with a Varian Eclipse spectrofluorometer from Varian. In both cases, the measurements were taken at room temperature in a 1 cm quartz cuvette. For all measurements, the absorbances of the solutions were about 0.1 corresponding to a concentration range of 2-3×10^−6 M of the fluorophore. Fluorescence quantum yields were measured against p-quaterphenyl in cyclohexane (ΦF=0.89) for trans-stilbene (ST) and STBA, anthracene in cyclohexane (φF=0.36) for CSTBA and MSTBA and Quinine sulfate in 1N sulfuric acid (ΦF=0.577) for DSTBA.
(§2) where Iacid and Ibase are the intensity limits in the acid and basic region, respectively. Titration curves against sugar were fitted and dissociation constant (KD) values were obtained using the equation: [formula]
(§3) where Io and If are the initial (no sugar) and final (plateau) intensities of the titration curves. All solutions in water and buffer contained also 33.3% […] methanol to avoid any problem due to the aggregation.

[5] = Fluorescence titration curves against sugar (dissociation constant), D-galactose; assay type: binding
Procedure: as §1, §2, §3

[6] = Fluorescence titration curves against sugar (dissociation constant), D-glucose; assay type: binding
Procedure: as §1, §2
(§4) where Io and If are the initial (no sugar) and final (plateau) intensities of the titration curves. […]

[7] = Titration curves against pH (pKa of the boronic acid group) with and without sugar; assay type: physicochemical; settings: for pKa: aqueous buffer solutions with methanol
Procedure: Titration curves against pH were measured in buffer solutions: acetate buffer for pH 4.0-5.5, phosphate buffer for pH 6.0-9.0 and carbonate buffer for pH 10,0-11.0. Titration curves were fitted and pKa (pKa=−log Ka) values were obtained using the equation: [formula]
as §2, §4

[8] = Yoon et al., cited from earlier work
[9] = Fluorescence titration curves against sugar (dissociation constant), D-fructose; assay type: binding; settings: compounds 4 and 5; phosphate buffer pH 8.0/methanol 1:2 (v/v)
[10] = Stability and dissociation constants of 7 and 8 for D-glucose from steady-state and frequency-domain fluorescence; assay type: binding; settings: 1:1 complex with D-glucose, methanol/phosphate buffer pH 7.7 (1:3)
Excerpt: (§5) As discussed in the literature, the change is the intensity is attributed to the removal of the PET quenching due to the interaction between the boron and nitrogen atoms following the binding with glucose. In attempt to see the possible interference from macrobiosystems, titration curves have also been measured in presence of BSA and two detergents, one with a […] charged head group (HDTBr) and the other with a […] charged head group (SDS). BSA has a little effect on the titration curve of 7 and no effect for compound 8. The effect of BSA one compound 7 could be the result of an interaction between these two compounds. But, as the measurements are taken in a mixture of methanol and water, aggregation could not be neglect. […] To obtain a reproducible titration curve, vigorous stirring and time must be applied. In the presence of micelles, a complete inhibition of the intensity change is observed. […] For compound, the dissociation constant is in the millimolar range which is characteristic with the boronic acid group. For compound 8, this dissociation constant goes down to submillimolar range. This is due to the ability of both boronic acid group present on compound 8 to bind one molecule of glucose.
Titration curves obtain with the mean lifetime and with the phase angle and modulation are shown in FIGS. 24 and 25 respectively for both compounds. […] This is due to the fact that the short lifetime component becomes less important and gradually the decay become more monoexponential with the addition of glucose. For compound 8, the combination of larger mean lifetime change and decrease of the short lifetime component result in a larger change in the phase angle and modulation with the presence of glucose. The apparent association constants obtained with the mean lifetime, phase angle and modulation show a decrease of an order in comparison with the KD obtained with the steady-state intensity change. […] This is due to the more important contribution of the complex (probe with analyte) on the lifetime because of the higher quantum yield and longer lifetime of the latter.
Steady-state fluorescence measurements were performed in 1 cm quartz cuvette in an ISS spectrofluorometer.
Frequency-domain (FD) measurements were performed using instrumentation described previously (65). The Domain (TD measurements can also be applied to the fluorescent compounds and methods of the present invention, as readily recognized by those of ordinary skill in the art. For Example 4, an amplitude modulated UV-LED was use as light source given and peak intensity centered around 370 nm. Emission was observed through a 415 nm cut-off and a 420 nm interference filter. The FD or TD intensity decay data were analyzed by nonlinear least squares in terms of the multiexponential model: [formula]
The values of (τ) are thought to be proportional to the quantum yield of the sample. […] Stability and association constants are determined according to the method described in the literature.

[11] = Solubility observation during titrations; assay type: physicochemical; settings: methanol/water mixture
Excerpt: as §5

[12] = Emission intensity change of STBA after addition of sugars; settings: phosphate buffer pH 8.0/methanol 2:1 (v/v), λex=310 nm
Excerpt: A decrease of the fluorescence emission is observed after the addition of sugar. The overall decrease is relatively weak, about 15%. Since the same intensity change is observed by increasing the pH, this change is attributed to the formation of the anionic form of the boronic acid group. […] The decrease of this pKa for the complex with sugar is also a general observation for this chelator group. […] At pH 8.0, STBA is present mostly in its neutral form. After the addition of sugar, the complex exists under the anionic form due to its lower pKa. This change from the neutral to the anionic form is at the origin of the intensity changes observed for STBA and the other complexes presented in this study. […]
Stilbene-4-boronic acid (STBA), 4′-cyanostilbene-4-boronic acid (CSTBA), 4′-methoxystilbene-4-boronic acid (MSTBA) and 4′-(dimethylamino)stilbene-4-boronic acid (DSTBA) were synthesized by the Wittig reaction between the para-substituted benzaldehydes and the para-boronic acid derivative of the benzyltriphenylphosphonium bromide. […] Absorption spectrawere recorded with a Cary 50 UV-Vis spectrophotometer from Varian. Emission spectra were recorded with a Varian Eclipse spectrofluorometer from Varian. […] For all measurements, the absorbances of the solutions were about 0.1 corresponding to a concentration range of 2-3×10^−6 M of the fluorophore. […]

[13] = compound 6, pH 7.0, phosphate buffer/methanol 2:1
[14] = compounds 4 and 5, phosphate buffer pH 8.0/methanol 1:2 (v/v), read-out: KD galactose
[15] = compounds 4 and 5, phosphate buffer pH 8.0/methanol 1:2 (v/v), read-out: KD glucose
[16] = compounds 4 and 5, 66.6% methanol, 50 mM fructose, read-out: pKa fructose (50 mM)
[17] = compounds 4 and 5, 66.6% methanol, 170 mM glucose, read-out: pKa glucose (170 mM)
[18] = compounds 4 and 5, buffer with 66.6% (v/v) methanol, read-out: pKa no sugar
[19] = 30 MHz, read-out: KD, Modulation
[20] = 30 MHz, read-out: KD, Phase Angle
[21] = read-out: KD, Steady State Intensity
[22] = stilbenes, pH 8.0, 33.3% methanol, read-out: KD D-fructose
[23] = stilbenes, pH 8.0, 33.3% methanol, read-out: KD D-galactose
[24] = stilbenes, pH 8.0, 33.3% methanol, read-out: KD D-glucose
[25] = stilbenes, 33.3% methanol, 50 mM D-fructose, read-out: pKa +D-fructose (50 mM)
[26] = stilbenes, 33.3% methanol, 50 mM D-glucose, read-out: pKa +D-glucose (50 mM)
[27] = stilbenes, solution contained 33.3% methanol, no sugar, read-out: pKa Alone

## OB(O)c1ccccc1 [phenylboronic acid]
[1]; literature value, read-out: KD D-fructose
  Kd: 0.2 mM
[2]
  Kd: 3.6 mM
[3]; literature value, read-out: KD D-glucose
  Kd: 9.1 mM

## CN(C)c1ccc(-c2cnc(-c3ccc(B(O)O)cc3)o2)cc1 [compound 6, 5-(4′-Dimethylaminophenyl)-2-(4″-boronophenyl)oxazol]
[4]; [13]
  increase of the emission intensity in presence of fructose: about 5 fold
[4]; compound 6, phosphate buffer/methanol (2:1 v/v) at pH 7.0, read-out: Dissociation constant (KD) for fructose
  Kd: 1.9 ± 0.1 mM
[5]; [13]
  increase of the emission intensity in presence of galactose: about 3 fold
[5]; compound 6, phosphate buffer/methanol (2:1 v/v) at pH 7.0, read-out: Dissociation constant (KD) for galactose
  Kd: 14 ± 1 mM
[6]; [13]
  increase of the emission intensity in presence of glucose: about 3 fold
[6]; compound 6, phosphate buffer/methanol (2:1 v/v) at pH 7.0, read-out: Dissociation constant (KD) for glucose
  Kd: 37 ± 3 mM
[7]; compound 6
  pKa in presence of fructose: 5.6
  pKa in presence of glucose: 6.5
[7]; compound 6, λex=350 nm
  pKa in absence of sugar: 7.8

## OB(O)c1ccc2cc3ccccc3cc2c1 [anthrylboronic acid, anthryl-2-boronic acid]
[1]; pH 7.4, literature
  decrease of emission intensity after addition of fructose: 30%
[3]
  decrease of emission intensity after addition of glucose: about 10%
[3]; listed as anthryl-2-boronic acid
  decrease of emission intensity after addition of glucose: 10%
[8]; saturated fructose solution
  pKa of complex with fructose: 5.9
[8]; uncomplexed
  pKa: 8.8

## CN(C)c1ccc(/C=C/C=C/C=C/c2ccc(B(O)O)cc2)cc1 [compound 5, 1-(p-dimethylaminophenyl)-6-(p-boronophenyl)-hexa-1,3,5-triene]
[5]; [14]
  Kd: 5.4 ± 0.4 mM
[6]; [15]
  Kd: 15 ± 1 mM
[7]; [16]
  pKa: 6.1 ± 0.05
[7]; [17]
  pKa: 6.86 ± 0.02
[7]; [18]
  pKa: 8.75
[9]
  Kd: 0.84 ± 0.03 mM

## CN(Cc1ccccc1B(O)O)Cc1c2ccccc2cc2ccccc12 [compound 7, 9-[[N-Methyl-N-(o-boronobenzyl)amino]methyl]anthracene]
[10]
  Log KS, Mean Lifetime: 2.5 (0.994:4)
  Log KS, Steady State Intensity: 1.7 (0.993:7)
[10]; 30 MHz
  Log KS, Modulation: 2.5 (0.999:6)
  Log KS, Phase Angle: 2.2 (0.993:5)
[10]; [19]
  Kd: 3.4 mM
[10]; [20]
  Kd: 6.1 mM
[10]; read-out: KD, Mean Lifetime
  Kd: 3.2 mM
[10]; [21]
  Kd: 19.3 mM
[11]
  solubility: relatively low solubility

## N#Cc1ccc(/C=C/c2ccc(B(O)O)cc2)cc1 [CSTBA, 4′-cyanostilbene-4-boronic acid]
[4]; pH 7.0, read-out: dissociation constant for D-fructose
  Kd: 3.22 mM
[4]; pH 7.5, read-out: dissociation constant for D-fructose
  Kd: 1.19 mM
[4]; [22]
  Kd: 0.65 mM
[5]; [23]
  Kd: 12.5 mM
[6]; [24]
  Kd: 18.3 mM
[7]; [25]
  pKa: 5.84
[7]; [26]
  pKa: 7.3
[7]; [27]
  pKa: 8.17

## CN(Cc1ccccc1B(O)O)Cc1c2ccccc2c(CN(C)Cc2ccccc2B(O)O)c2ccccc12 [compound 8, 9,10-Bis[[N-methyl-N-(o-boronobenzyl)amino]methyl]anthracene]
[10]
  Log KS, Mean Lifetime: 4.4 (0.992:11)
  Log KS, Steady State Intensity: 3.1 (0.998:12)
[10]; 30 MHz
  Log KS, Modulation: 4.1 (0.995:7)
  Log KS, Phase Angle: 4.5 (0.996:10)
[10]; [19]
  Kd: 0.079 mM
[10]; [20]
  Kd: 0.032 mM
[10]; read-out: KD, Mean Lifetime
  Kd: 0.04 mM
[10]; [21]
  Kd: 0.79 mM
[11]
  solubility: relatively low solubility

## OB(O)c1ccc(/C=C/c2ccccc2)cc1 [STBA, stilbene-4-boronic acid]
[4]; [22]
  Kd: 3.4 mM
[5]; [23]
  Kd: 6 mM
[6]; [24]
  Kd: 11 mM
[7]; [25]
  pKa: 6.4
[7]; [26]
  pKa: 7.63
[7]; [27]
  pKa: 8.86
[12]
  overall decrease of the fluorescence emission after addition of sugar: about 15%

## CN(C)c1ccc(/C=C/C=C/c2ccc(B(O)O)cc2)cc1 [compound 4, 1-(p-Dimethylaminophenyl)-4-(p-boronophenyl)-buta-1,3-diene]
[5]; [14]
  Kd: 5.9 ± 0.6 mM
[6]; [15]
  Kd: 17 ± 2 mM
[7]; [16]
  pKa: 6.19 ± 0.04
[7]; [17]
  pKa: 6.97 ± 0.02
[7]; [18]
  pKa: 8.9
[9]
  Kd: 1.12 ± 0.05 mM

## COc1ccc(/C=C/c2ccc(B(O)O)cc2)cc1 [MSTBA, 4′-methoxystilbene-4-boronic acid]
[4]; [22]
  Kd: 1 mM
[5]; [23]
  Kd: 26 mM
[6]; [24]
  Kd: 43 mM
[7]; [25]
  pKa: 6.36
[7]; [26]
  pKa: 7.88
[7]; [27]
  pKa: 8.58
